Reference: patent US11186572B2, “Bacterial glutaminyl cyclases and inhibitors thereof for use in the treatment of periodontitis” (Fraunhofer-Gesellschaft zur Forderung der Angewandten …, priority 2016, dated 2021)
≈ marks a conversion by molar mass, not a printed value. Entries after “also recorded” stand apart in the source; their conditions may differ. Read-outs that look alike come from different tables or passages of the source.

Key:
[1] = tested on: T. forsythia ATCC 42077; assay: MIC/MBC, cultivation in 2-fold dilution series; format: cell-based; details: Tannerella forsythia, ATCC42077, T.f. ATCC 42077; for MIC: lowest concentration without visible growth (turbidity); for MBC: no growth of subcultivation or reduction by 99.9%
Source text: (§1) Bacteria expressing PgQC, TfQC and PiQC, namely P. gingivalis ATCC 33277, P. gingivalis M5-1-2, T. forsythia ATCC 42077, and P. intermedia ATCC 25611 were cultivated in the presence of compounds MWT-S-00275, MWT-S-00431, MWT-S-00441 and doxycycline in 2-fold dilution series. […]

[2] = tested on: P. gingivalis ATCC 33277; assay: MIC/MBC, cultivation in 2-fold dilution series; format: cell-based; details: Porphyromonas gingivalis, ATCC33277, P.g. ATCC 33277; for MIC: lowest concentration without visible growth (turbidity); for MBC: no growth of subcultivation or reduction by 99.9%
Source text: as §1

[3] = tested on: P. intermedia ATCC 25611; assay: MIC/MBC, cultivation in 2-fold dilution series; format: cell-based; details: Prevotella intermedia, ATCC25611, P.i. ATCC 25611; for MIC: lowest concentration without visible growth (turbidity); for MBC: no growth of subcultivation or reduction by 99.9%
Source text: as §1

[4] = tested on: P. gingivalis M5-1-2; assay: MIC/MBC, cultivation in 2-fold dilution series; format: cell-based; details: Porphyromonas gingivalis, M512, P.g. M5-1-2; for MIC: lowest concentration without visible growth (turbidity); for MBC: no growth of subcultivation or reduction by 99.9%
Source text: as §1

[5] = tested on: bacterial QC (PgQC, PiQC, TfQC); assay: Inhibition of bacterial QC by metal chelators (fluorometric activity assay); format: biochemical, P. gingivalis, P. intermedia, T. forsythia; details: 250 μM H-Gln-AMC, increasing chelator concentrations, approx. 5 nM bacQC, 30° C.; all three bacterial QC (FIG. 7)
Procedure: The fluorometrically activity assay was carried out as described above, except the presence of 1% (v/v) DMSO in the case of 1,10-phenanthroline or dipicolinic acid. Finally the residual bacQC activity was determined at steady state whereas bacQC without Chelators and +/−1% DMSO served as positive control.
The reaction was initiated by adding approximately 5 nM bacQC. Black bars indicate residual PgQC activity, striped bars represent residual PiQC activity, and white bars display residual TfQC activity. All determinations were carried out at 30° C. as described above.

[6] = target: T1, PgQC (Porphyromonas gingivalis, UniProt Q7MT37); assay: biochemical; design: species or system P. gingivalis
T1 construct: Ki; RA (average residual QC activity of PgQC); other: c = 1 μM; other: c = 1.5 μM; other: c = 10 μM; other: c = 100 μM; other: c = 12 μM; RA; fused on or other part: N-terminal His tag from pET28a(+), cleaved off by thrombin before the enzymatic characterisation
Procedure: The assay consists of varying concentration of the fluorogenic substrate and 0.5 U pyroglutaminyl aminopeptidase in 50 mM Tris-HCl, 50 mM NaCl at pH 8.0. After 10 minute incubation time at 30° C. reaction was initiated by addition of bacQC to a final volume of 125 μl reaction mixture. […] All determinations were carried out in 96 well microtiter plates (Fisher Scientific) at 30° C. using the FluoStar Optima (BMG Labtech).
For inhibitor testing, the sample composition was the same as described above, except for the addition of the putative inhibitory compound. […] (∘) represents reaction without inhibitor. Determinations were carried out in 50 mM Tris-HCl, 50 mM NaCl pH 8.0 and 1% (v/v) DMSO at 30° C.
RA refers to the average residual QC activity of PgQC measured in the presence of a concentration c of the respective compound. Ki refers to the average Ki values measured as described above, and Std(Ki) refers to the standard deviation of Ki.

[7] = inhibition of PgQC, H-Gln-AMC, 50 mM Tris-HCl, 50 mM NaCl pH 8.0, 30° C., read-out: Ki (average)
[8] = read-out: RA (average residual QC activity of PgQC)
[9] = Ki (average), inhibition of PgQC, H-Gln-AMC, 50 mM Tris-HCl, 50 mM NaCl pH 8.0, 30° C.

Structure (SMILES)	MIC [1]	MBC [1]	MIC [2]	MBC [2]	MIC [3]	MBC [3]	MIC [4]	inhibitory effect on bacQC activity (residual activity) [5]	MBC [4]	Ki [6, 7]	remaining activity at 1 µM [6, 8]	also measured
C[C@H]1c2cccc(O)c2C(=O)C2=C(O)[C@]3(O)C(=O)C(C(N)=O)=C(O)[C@@H](N(C)C)[C@@H]3[C@@H](O)[C@@H]21 [Doxy, Doxycycline, reference compound]	≤ 3130 µg/mL	6250 µg/mL (≈ 14.1 mM)	≤ 3130 µg/mL	50000 µg/mL (≈ 113 mM)	≤ 3130 µg/mL	12500 µg/mL (≈ 28.1 mM)	≤ 3130 µg/mL					
O=C(O)c1cccc(C(=O)O)n1 [dipicolinic acid]								strong inhibitory activity				
O=C(O)CN(CCN(CC(=O)O)CC(=O)O)CC(=O)O [EDTA]								does not influence bacQC activity				
O=C(c1cc(Cl)cc(Cl)c1)N1CCc2[nH]cnc2C1 [MWT-S-00431, (3,5-Dichlorophenyl)(1,4,6,7-tetrahydro-5H-imidazo[4,5-c]pyridin-5-yl)methanone]	1000 µg/mL (≈ 3.38 mM)	2000 µg/mL (≈ 6.75 mM)	1000 µg/mL (≈ 3.38 mM)	2000 µg/mL (≈ 6.75 mM)	125 µg/mL (≈ 0.422 mM)	500 µg/mL (≈ 1.69 mM)	1000 µg/mL (≈ 3.38 mM)		2000 µg/mL (≈ 6.75 mM)	100 nM		Ki ([6]; Ki, Table 3 fit, competitive inhibition, 1% (v/v) DMSO, pH 8.0, 30° C.): 104 nM; Ki ([6]; Ki, exemplary determination (FIG. 4), 1% (v/v) DMSO, pH 8.0, 30° C.): 104 ± 3.31 nM; remaining activity at 10 µM [6, 8]: 3%
CC1(C)c2nc[nH]c2CCN1Cc1cc(F)c(F)c(F)c1 [MWT-S-00275, 4,4-Dimethyl-5-[(3,4,5-trifluorophenyl)methyl]-6,7-dihydro-3H-imidazo[4,5-c]pyridine]	250 µg/mL (≈ 0.847 mM)	250 µg/mL (≈ 0.847 mM)	500 µg/mL (≈ 1.69 mM)	1000 µg/mL (≈ 3.39 mM)	500 µg/mL (≈ 1.69 mM)	500 µg/mL (≈ 1.69 mM)	500 µg/mL (≈ 1.69 mM)		1000 µg/mL (≈ 3.39 mM)		22%	Ki [6, 9]: 143 nM
COc1cc(Cl)cc(C(=O)N2CCc3[nH]cnc3C2)c1 [MWT-S-00441, (3-Chloro-5-methoxyphenyl)(1,4,6,7-tetrahydro-5H-imidazo[4,5-c]pyridin-5-yl)methanone]	2000 µg/mL (≈ 6.86 mM)	2000 µg/mL (≈ 6.86 mM)	1000 µg/mL (≈ 3.43 mM)	2000 µg/mL (≈ 6.86 mM)	63 µg/mL (≈ 0.216 mM)	63 µg/mL (≈ 0.216 mM)	1000 µg/mL (≈ 3.43 mM)		> 2000 µg/mL	87 nM	17%	
c1cnc2c(c1)ccc1cccnc12 [phenanthroline, 1,10-phenanthroline]								strong inhibitory activity; also recorded: inhibited QC activity already at low mM range				
c1nc2c([nH]1)CCN(Cc1ccc3c(c1)OCCO3)C2 [MWT-S-00380, 5-(2,3-Dihydro-1,4-benzodioxin-6-ylmethyl)-1,4,6,7-tetrahydro-imidazo[4,5-c]pyridine]											39%	Ki [6, 9]: 311 nM
c1ccc(CN2CCc3[nH]cnc3C2c2ccccc2)cc1 (centres unmarked) [MWT-S-00268, 5-Benzyl-4-phenyl-3,4,6,7-tetrahydroimidazo[4,5-c]pyridine]												remaining activity at 16 µM [6, 8]: 93%
O=C(/C=C/c1ccccc1)N1CCc2[nH]cnc2C1 [MWT-S-00146, (E)-3-Phenyl-1-(3,4,6,7-tetrahydroimidazo[4,5-c]pyridin-5-yl)prop-2-en-1-one]										1580 nM		remaining activity at 15 µM [6, 8]: 18%
